From ChEMBL document CHEMBL5257023, “Identification of leads for antiproliferative activity on MDA-MB-435 human breast cancer cells through pharmacophore and CYP1A1-mediated metabolism” (Eur J Med Chem, 2016)
Structures can show the parent of a compound that is named as a salt.

Assays:
MCF7 [1] = test: Anticancer activity against human MCF7 cells assessed as inhibition of cell growth; format: functional, cell-based
MDA-MB-468 [2] = test: Anticancer activity against human MDA-MB-468 cells assessed as inhibition of cell growth incubated for 48 hrs by SRB assay; format: functional
MCF7 [3] = test: Anticancer activity against human MCF7 cells assessed as inhibition of cell growth incubated for 48 hrs by SRB assay; format: functional
MDA-MB-435 [4] = test: Anticancer activity against human MDA-MB-435 cells assessed as inhibition of cell growth incubated for 48 hrs by SRB assay; format: functional
NCI-H226 [5] = test: Anticancer activity against human NCI-H226 cells assessed as inhibition of cell growth incubated for 48 hrs by SRB assay; format: functional
MDA-MB-468 [6] = test: Anticancer activity against human MDA-MB-468 cells assessed as cell growth at 0.1 uM incubated for 48 hrs by SRB assay; format: functional; details: read-out: Activity
MDA-MB-468 [7] = test: Anticancer activity against human MDA-MB-468 cells assessed as cell growth at 1 uM incubated for 48 hrs by SRB assay; format: functional; details: read-out: Activity
MDA-MB-468 [8] = test: Anticancer activity against human MDA-MB-468 cells assessed as cell growth at 10 uM incubated for 48 hrs by SRB assay; format: functional; details: read-out: Activity
MDA-MB-468 [9] = test: Anticancer activity against human MDA-MB-468 cells assessed as cell growth at 100 uM incubated for 48 hrs by SRB assay; format: functional; details: read-out: Activity
MCF7 [10] = test: Anticancer activity against human MCF7 cells assessed as cell growth at 0.1 uM incubated for 48 hrs by SRB assay; format: functional; details: read-out: Activity
MCF7 [11] = test: Anticancer activity against human MCF7 cells assessed as cell growth at 1 uM incubated for 48 hrs by SRB assay; format: functional; details: read-out: Activity
MCF7 [12] = test: Anticancer activity against human MCF7 cells assessed as cell growth at 10 uM incubated for 48 hrs by SRB assay; format: functional; details: read-out: Activity
MCF7 [13] = test: Anticancer activity against human MCF7 cells assessed as cell growth at 100 uM incubated for 48 hrs by SRB assay; format: functional; details: read-out: Activity
NCI-H226 [14] = test: Anticancer activity against human NCI-H226 cells assessed as cell growth at 0.1 uM incubated for 48 hrs by SRB assay; format: functional; details: read-out: Activity
NCI-H226 [15] = test: Anticancer activity against human NCI-H226 cells assessed as cell growth at 1 uM incubated for 48 hrs by SRB assay; format: functional; details: read-out: Activity
NCI-H226 [16] = test: Anticancer activity against human NCI-H226 cells assessed as cell growth at 10 uM incubated for 48 hrs by SRB assay; format: functional; details: read-out: Activity
NCI-H226 [17] = test: Anticancer activity against human NCI-H226 cells assessed as cell growth at 100 uM incubated for 48 hrs by SRB assay; format: functional; details: read-out: Activity
MDA-MB-435 [18] = test: Anticancer activity against human MDA-MB-435 cells assessed as cell growth at 0.1 uM incubated for 48 hrs by SRB assay; format: functional; details: read-out: Activity
MDA-MB-435 [19] = test: Anticancer activity against human MDA-MB-435 cells assessed as cell growth at 1 uM incubated for 48 hrs by SRB assay; format: functional; details: read-out: Activity
MDA-MB-435 [20] = test: Anticancer activity against human MDA-MB-435 cells assessed as cell growth at 10 uM incubated for 48 hrs by SRB assay; format: functional; details: read-out: Activity
MDA-MB-435 [21] = test: Anticancer activity against human MDA-MB-435 cells assessed as cell growth at 100 uM incubated for 48 hrs by SRB assay; format: functional; details: read-out: Activity
[22] = read-out: LC50 (the source's name)

COc1cc(-c2nc3cc(F)ccc3s2)cc(O)c1OC
IC50 (MCF7 [1]): 0.653 µM

COc1cc(-c2nc3cc(F)ccc3s2)cc(OC)c1OC
IC50 (MCF7 [1]): 0.0019 µM

COc1ccc(-c2nc3c(F)cccc3s2)cc1OC
IC50 (MCF7 [1]): 0.005 µM

COCOc1ccc(-c2nc3cc(F)ccc3s2)cc1OC
IC50 (MCF7 [1]): 0.065 µM

CCOc1cc(-c2nc3cc(F)ccc3s2)ccc1OC
IC50 (MCF7 [1]): 0.08 µM

c1ccc2sc(-c3ccc4c(c3)OCO4)nc2c1
IC50 (MCF7 [1]): 57.8 µM

COc1ccc(-c2nc3cc(F)ccc3s2)cc1C
IC50 (MCF7 [1]): 0.048 µM

COc1ccc(-c2nc3cc(F)ccc3s2)cc1I
IC50 (MCF7 [1]): 0.82 µM

COc1ccc(-c2nc3ccccc3s2)cc1OC
IC50 (MCF7 [1]): 52.7 µM

COc1ccc(-c2nc3cc(F)ccc3s2)cc1F
IC50 (MCF7 [1]): 0.87 µM

COc1ccc(-c2nc3cc(F)ccc3s2)cc1Cl
IC50 (MCF7 [1]): 0.76 µM

COc1ccc(-c2nc3cc(F)ccc3s2)cc1Br
IC50 (MCF7 [1]): 0.85 µM

COc1ccc(-c2nc3cc(Cl)ccc3s2)cc1OC
IC50 (MCF7 [1]): 27.9 µM

COc1cc(OC)cc(-c2nc3cc(F)ccc3s2)c1
IC50 (MCF7 [1]): 1.23 µM

COc1ccc(-c2nc3ccc(F)cc3s2)cc1OC
IC50 (MCF7 [1]): 0.062 µM

O=c1c(-c2cccc([N+](=O)[O-])c2)coc2ccccc12
IC50 (MCF7 [1]): 7.9 µM

COc1ccc(-c2coc3cc(F)c(F)cc3c2=O)cc1OC
IC50 (MCF7 [1]): 41.5 µM

COc1ccc(-c2coc3c(F)cccc3c2=O)cc1OC
IC50 (MCF7 [1]): 75.5 µM

COc1ccc(-c2coc3c(F)c(F)ccc3c2=O)cc1OC
IC50 (MCF7 [1]): 47.2 µM

O=c1c(-c2ccc(Cl)cc2)coc2ccccc12
IC50 (MCF7 [1]): 64.9 µM

O=c1c(-c2ccc3c(c2)OCO3)coc2ccc(F)cc12
IC50 (MCF7 [1]): 60 µM

COc1ccc(-c2coc3cc(F)ccc3c2=O)cc1
IC50 (MCF7 [1]): 43.8 µM

COc1ccc(-c2coc3cc(F)ccc3c2=O)cc1OC
IC50 (MCF7 [1]): 90.6 µM

COc1ccc(-c2coc3ccccc3c2=O)cc1OC
IC50 (MCF7 [1]): 88.1 µM

Cc1cc(-c2nc3cc(F)ccc3s2)ccc1N
IC50 (MCF7 [1]): 0.0001 µM

COc1ccc(-c2nc3cc(Br)ccc3s2)cc1OC
IC50 (MCF7 [1]): 13.6 µM

COc1ccc(-c2nc3cc(F)ccc3s2)c(OC)c1OC
IC50 (MCF7 [1]): 0.023 µM

Oc1ccc(-c2nc3cc(F)ccc3s2)cc1O
IC50 (MCF7 [1]): 0.72 µM

COc1ccc(-c2coc3ccc(F)cc3c2=O)cc1OC
IC50 (MCF7 [1]): 93.1 µM

COc1ccc(-c2coc3ccccc3c2=O)cc1
IC50 (MCF7 [1]): 81.4 µM

O=c1c(-c2ccc(Br)cc2)coc2ccccc12
IC50 (MCF7 [1]): 8.8 µM

COc1ccc(-c2coc3c(F)cc(F)cc3c2=O)cc1OC
IC50 (MCF7 [1]): 46.7 µM

CCOc1ccc(-c2nc3cc(F)ccc3s2)cc1OCC
IC50 (MCF7 [1]): 0.0007 µM

COc1ccc(-c2nc3cc(F)ccc3s2)cc1
IC50 (MCF7 [1]): 0.49 µM

Fc1ccc2sc(-c3ccc4c(c3)OCO4)nc2c1
IC50 (MCF7 [1]): 20.7 µM

Oc1ccc(-c2nc3ccc(Br)cc3s2)cc1
IC50 (MCF7 [1]): 4.16 µM

COc1cc(-c2nc3cc(F)ccc3o2)cc(OC)c1OC
IC50 (MCF7 [1]): 16 µM

COc1ccc2nc(-c3ccc(O)cc3)sc2c1
IC50 (MCF7 [1]): 45.8 µM

Oc1ccc(-c2nc3ccc(Cl)cc3s2)cc1
IC50 (MCF7 [1]): 26.5 µM

Oc1ccc(-c2nc3cc(C(F)(F)F)ccc3s2)cc1
IC50 (MCF7 [1]): 13.8 µM

Oc1cccc(-c2nc3cc(F)ccc3s2)c1
IC50 (MCF7 [1]): 0.57 µM

Oc1ccc(-c2nc3cc(F)ccc3s2)cc1
IC50 (MCF7 [1]): 0.4 µM

COc1cc(OC)cc(-c2nc3ccc(F)cc3o2)c1
IC50 (MCF7 [1]): 3.72 µM

COc1ccc(-c2cc(=O)c3ccc(F)cc3o2)cc1OC
IC50 (MCF7 [1]): 27.9 µM

COc1cccc(OC)c1-c1nc2cc(F)ccc2o1
IC50 (MCF7 [1]): 58.1 µM

Fc1ccc2oc(-c3ccc4c(c3)OCO4)nc2c1
IC50 (MCF7 [1]): 61.4 µM

COc1cccc(-c2nc3ccc(F)cc3o2)c1
IC50 (MCF7 [1]): 35.1 µM

COc1ccc(-c2nc3ccc(F)cc3o2)cc1
IC50 (MCF7 [1]): 41 µM

Fc1ccc2nc(-c3ccc4c(c3)OCO4)oc2c1
IC50 (MCF7 [1]): 19.2 µM

COc1ccc(-c2cc(=O)c3cc(F)ccc3o2)cc1OC
IC50 (MCF7 [1]): 83.4 µM

COc1cc(-c2nc3ccc(F)cc3o2)cc(OC)c1OC
IC50 (MCF7 [1]): 1.09 µM

COc1ccccc1-c1nc2cc(F)ccc2o1
IC50 (MCF7 [1]): 0.36 µM

COc1cccc(-c2nc3cc(F)ccc3o2)c1
IC50 (MCF7 [1]): 39.5 µM

COc1ccc(-c2nc3ccc(F)cc3o2)c(OC)c1
IC50 (MCF7 [1]): 69.9 µM

COc1ccc(-c2nc3cc(F)ccc3o2)cc1OC
IC50 (MCF7 [1]): 0.83 µM

COc1cccc(OC)c1-c1nc2ccc(F)cc2o1
IC50 (MCF7 [1]): 90.7 µM

CS(=O)(=O)c1ccc2nc(-c3ccc(O)cc3)sc2c1
IC50 (MCF7 [1]): 62.3 µM

COc1ccc(-c2nc3cc(F)ccc3o2)cc1
IC50 (MCF7 [1]): 22.7 µM

COc1cc(OC)cc(-c2nc3cc(F)ccc3o2)c1
IC50 (MCF7 [1]): 45.4 µM

Cc1ccc(-c2nc3cc(F)ccc3s2)cc1O
IC50 (MCF7 [1]): 0.5 µM

COc1ccccc1-c1nc2ccc(F)cc2s1
IC50 (MCF7 [1]): 0.82 µM

Cc1c(F)c(N)c2c(=O)cc(-c3ccc(N)c(F)c3)oc2c1F [AMINOFLAVONE]
IC50 (MCF7 [1]): 0.035 µM

COc1cccc2c1C(=O)c1c(O)c3c(c(O)c1C2=O)C[C@@](O)(C(=O)CO)C[C@@H]3O[C@H]1C[C@H](N)[C@H](O)[C@H](C)O1 [DOXORUBICIN HYDROCHLORIDE]
GI50 (MDA-MB-468 [2]): 10.5 µM
TGI (MDA-MB-468 [2]): 50.4 µM
CC50 (MDA-MB-468 [2]; [22]): 90.2 µM
GI50 (MCF7 [3]): < 0.1 µM
TGI (MCF7 [3]): 90.4 µM
CC50 (MCF7 [3]; [22]): > 100 µM
GI50 (MDA-MB-435 [4]): < 0.1 µM
TGI (MDA-MB-435 [4]): 43.4 µM
GI50 (NCI-H226 [5]): < 0.1 µM
TGI (NCI-H226 [5]): 43.2 µM
growth at 0.1 µM (MDA-MB-468 [6]): 83%
growth at 1 µM (MDA-MB-468 [7]): 64.5%
growth at 10 µM (MDA-MB-468 [8]): 22%
growth at 100 µM (MDA-MB-468 [9]): -60.9%
growth at 0.1 µM (MCF7 [10]): 28.5%
growth at 1 µM (MCF7 [11]): 17.2%
growth at 10 µM (MCF7 [12]): 10.5%
growth at 100 µM (MCF7 [13]): -1.6%
growth at 0.1 µM (NCI-H226 [14]): 57.4%
growth at 1 µM (NCI-H226 [15]): 12.7%
growth at 10 µM (NCI-H226 [16]): 8.1%
growth at 100 µM (NCI-H226 [17]): -38.3%
growth at 0.1 µM (MDA-MB-435 [18]): 50.8%
growth at 1 µM (MDA-MB-435 [19]): 42.8%
growth at 10 µM (MDA-MB-435 [20]): -26.6%
growth at 100 µM (MDA-MB-435 [21]): -30.9%
